Laboratory results: US20250144067A1, “PERSONALIZED STARVATION THERAPY FOR CANCER” (Faeth Therapeutics, Inc., priority 2021, published 2025)
Counter-ions that a name gives are not always drawn. Like-named read-outs stand apart in the source and are kept apart here.

What was measured:
[1] = test system: NCI-H292 lung cancer cells; test: FDA drug screening, complete media vs cholesterol-free media with simvastatin (TABLE 2); format: cell-based, human
[2] = test system: NCI-H292 lung cancer cells; test: FDA drug screening, complete media vs cholesterol-free media without statin (TABLE 1); format: cell-based, human
[3] = NCI-H292 cells, FDA drug library screen, cholesterol-free media with simvastatin 0.04 μM
[4] = NCI-H292 cells, FDA drug library screen, complete media
[5] = complete media minus cholesterol-free media + simvastatin, >0 enhanced anti-cancer activity, about 0 neutral, <0 antagonist
[6] = NCI-H292 cells, cholesterol-free media without statin, FDA drug library screen
[7] = NCI-H292 cells, complete media, FDA drug library screen
[8] = complete vs cholesterol-free media, >0 enhanced anti-cancer activity, about 0 neutral, <0 antagonist
[9] = NCI-H292 cells, FDA library drug in cholesterol-free media with simvastatin 0.04 μM
[10] = NCI-H292 cells, FDA library drug in complete media
[11] = complete media vs cholesterol-free media + simvastatin (0.04 μM), >0 enhanced anti-cancer activity, about 0 neutral, <0 antagonist
[12] = Complete minus Cholesterol-free, greater than 0 enhanced anti-cancer activity, about 0 neutral, below 0 antagonist
[13] = NCI-H292 cells, FDA drug library screen, cholesterol-free media without statin
[14] = complete media vs cholesterol-free media + simvastatin (0.04 μM), […]
[15] = Complete minus Cholesterol-free, […]
[16] = NCI-H292 cells, cholesterol-free media without statin
[17] = NCI-H292 cells, cholesterol-free media with simvastatin 0.04 μM, cell growth value in FDA drug screen
[18] = NCI-H292 cells, complete media, cell growth value in FDA drug screen
[19] = NCI-H292 cells, drug in cholesterol-free media with simvastatin 0.04 μM
[20] = NCI-H292 cells, drug in complete media
[21] = Complete minus Cholesterol-free, >0 enhanced anti-cancer activity, about 0 neutral, <0 antagonist
[22] = complete vs cholesterol-free media, greater than 0 enhanced anti-cancer activity, about 0 neutral, below 0 antagonists
[23] = NCI-H292 cells, cholesterol-free media with simvastatin 0.04 μM, FDA drug library screen (TABLE 2)
[24] = NCI-H292 cells, complete media, FDA drug library screen (TABLE 2)
[25] = complete media minus cholesterol-free media + simvastatin (0.04 μM), >0 enhanced anti-cancer activity, about 0 neutral, <0 antagonist
[26] = NCI-H292 cells in cholesterol-free media without statin
[27] = NCI-H292 cells in complete media

CCCCOc1ccc(CC(=O)NO)cc1 [Bufexamac]
Cholesterol-free media + simvastatin (0.04 μM) [1, 3]: 1.029
Complete Media [1, 4]: 1.594
Difference [1, 5]: 0.56
Cholesterol-free [2, 6]: 1.346
Complete [2, 7]: 1.459
Difference [2, 8]: 0.11

CN(Cc1cc(Br)cc(Br)c1N)C1CCCCC1 [Bromhexine (hydrochloride)]
Cholesterol-free media + simvastatin (0.04 μM) [1, 9]: 1.081
Complete Media [1, 10]: 0.7932
Difference [1, 11]: −0.29
Difference [2, 12]: −0.09
Cholesterol-free [2, 13]: 1.344
Complete [2, 4]: 1.254

NC(=O)NC1NC(=O)NC1=O (stereo not drawn) [Allantoin]
Cholesterol-free media + simvastatin (0.04 μM) [1, 9]: 1.146
Complete Media [1, 10]: 0.6387
Difference [1, 11]: −0.51
Difference [2, 12]: −0.09
Cholesterol-free [2, 13]: 0.5704
Complete [2, 4]: 0.4823

C[N+]1(C)[C@@H]2CC[C@H]1C[C@@H](OC(=O)C(O)c1ccccc1)C2.[Br-] (stereo partly drawn) [Homatropine (methylbromide)]
Cholesterol-free media + simvastatin (0.04 μM) [1, 9]: 1.302
Complete Media [1, 10]: 0.9164
Difference [1, 14]: −0.39
Difference [2, 15]: −0.22
Cholesterol-free [2, 16]: 1.269
Complete ([2]; NCI-H292 cells, complete media): 1.05

C/C=C(/C(=C/C)c1ccc(O)cc1)c1ccc(O)cc1 [Dienestrol]
Cholesterol-free media + simvastatin (0.04 μM) [1, 17]: 0.8618
Complete Media [1, 18]: 0.9909
Difference [1, 5]: 0.13
Cholesterol-free [2, 6]: 0.6505
Complete [2, 7]: 1.078
Difference [2, 8]: 0.43

COc1cc2c(cc1OC)[C@@H](Cc1cc(OC)c(OC)c(OC)c1)[N+](C)(CCCOC(=O)CC/C=C/CCC(=O)OCCC[N+]1(C)CCc3cc(OC)c(OC)cc3[C@H]1Cc1cc(OC)c(OC)c(OC)c1)CC2.[Cl-].[Cl-] (stereo partly drawn) [Mivacurium (dichloride)]
Cholesterol-free media + simvastatin (0.04 μM) [1, 9]: 1.752
Complete Media [1, 10]: 1.463
Difference [1, 14]: −0.29
Difference [2, 15]: −0.21
Cholesterol-free [2, 16]: 0.9248
Complete ([2]; NCI-H292 cells, complete media): 0.7178

CC(C)Oc1ccc(-c2nc(-c3cccc4c3CC[C@@H]4NCCO)no2)cc1C#N [Ozanimod]
Cholesterol-free media + simvastatin (0.04 μM) [1, 19]: 1.119
Complete Media [1, 20]: 0.9531
Difference [1, 11]: −0.17
Difference [2, 21]: −0.03
Cholesterol-free [2, 6]: 1.036
Complete [2, 7]: 1.004

CO[C@@]1(NC(=O)C2SC(=C(C(N)=O)C(=O)O)S2)C(=O)N2C(C(=O)O)=C(CSc3nnnn3C)CS[C@@H]21 (stereo partly drawn) [Cefotetan]
Cholesterol-free media + simvastatin (0.04 μM) [1, 19]: 1.2
Complete Media [1, 20]: 1.027
Difference [1, 11]: −0.17
Difference [2, 21]: −0.26
Cholesterol-free [2, 16]: 1.196
Complete ([2]; NCI-H292 cells, complete media): 0.9309

CC(C)(C)[C@@H]1NC(=O)O[C@@H]2CCC[C@H]2OC/C=C/C(F)(F)c2nc3ccccc3nc2O[C@@H]2C[C@@H](C(=O)N[C@]3(C(=O)NS(=O)(=O)C4(C)CC4)C[C@H]3C(F)F)N(C2)C1=O [Glecaprevir]
Cholesterol-free media + simvastatin (0.04 μM) [1, 17]: 1.021
Complete Media [1, 18]: 1.126
Difference [1, 5]: 0.11
Difference [2, 21]: −0.04
Cholesterol-free [2, 6]: 0.8867
Complete [2, 7]: 0.8478

CCCC(=O)OCOC(=O)C1=C(C)NC(C)=C(C(=O)OC)C1c1cccc(Cl)c1Cl (stereo not drawn) [Clevidipine]
Cholesterol-free media + simvastatin (0.04 μM) [1, 17]: 0.8061
Complete Media [1, 18]: 0.9036
Difference [1, 5]: 0.10
Cholesterol-free [2, 16]: 1.292
Complete ([2]; NCI-H292 cells, complete media): 0.9289
Difference [2, 22]: −0.36

CC(C)C(=O)OCC(=O)[C@@]12O[C@H](C3CCCCC3)O[C@@H]1C[C@H]1[C@@H]3CCC4=CC(=O)C=C[C@]4(C)[C@H]3[C@@H](O)C[C@@]12C [Ciclesonide]
Cholesterol-free media + simvastatin (0.04 μM) [1, 3]: 0.6652
Complete Media [1, 4]: 0.5742
Difference [1, 11]: −0.09
Difference [2, 21]: −0.28
Cholesterol-free [2, 16]: 0.7014
Complete ([2]; NCI-H292 cells, complete media): 0.4234

CC(=O)O[C@H]1C[C@@H]2CC[C@@H]3[C@H](CC[C@@]4(C)[C@H]3C[C@H]([N+]3(C)CCCCC3)[C@@H]4OC(C)=O)[C@@]2(C)C[C@@H]1N1CCCCC1.[Br-] [Vecuronium (bromide)]
Cholesterol-free media + simvastatin (0.04 μM) [1]: 0.9802
Complete Media [1]: 0.9534
Difference [1]: −0.03
Cholesterol-free [2]: 1.045
Complete [2]: 0.9438
Difference [2]: −0.10

C[C@H]1O[C@@H](n2cc(F)c(=O)[nH]c2=O)[C@H](O)[C@@H]1O [Doxifluridine]
Cholesterol-free media + simvastatin (0.04 μM) [1, 23]: 1.085
Complete Media [1, 24]: 1.031
Difference [1, 25]: −0.05
Difference ([2]; Complete minus Cholesterol-free, greater than 0 enhanced anti-cancer activity, about 0 neutral, below 0 antagonists): −0.49
Cholesterol-free [2, 26]: 1.329
Complete [2, 27]: 0.8392

c1ccc(C2CN3CCSC3=N2)cc1 (stereo not drawn) [Tetramisole (hydrochloride)]
Cholesterol-free media + simvastatin (0.04 μM) [1, 23]: 1.011
Complete Media [1, 24]: 0.9757
Difference [1, 25]: −0.04
Cholesterol-free [2, 16]: 1.362
Complete ([2]; NCI-H292 cells, complete media): 0.9185
Difference [2, 22]: −0.44

Oc1ccc(C=Cc2cc(O)cc(O)c2)cc1 [Resveratrol]
Cholesterol-free media + simvastatin (0.04 μM) [1, 3]: 0.7896
Complete Media [1, 4]: 0.6933
Difference [1, 11]: −0.10
Cholesterol-free [2, 6]: 1.037
Difference [2, 8]: 0.13

C1CCN2C[C@@H]3C[C@@H](CN4CCCC[C@@H]34)[C@H]2C1 [(−)-Sparteine]
Cholesterol-free media + simvastatin (0.04 μM) ([1]; NCI-H292 cells, cholesterol-free media with simvastatin 0.04 μM, […]): 1.054
Complete Media ([1]; NCI-H292 cells, complete media, […]): 1.106
Difference ([1]; complete media minus cholesterol-free media + simvastatin, […]): 0.05
Difference [2, 15]: −0.60
Cholesterol-free [2, 26]: 1.432
Complete [2, 27]: 0.8366

Cc1ncc([N+](=O)[O-])n1CC(C)O (stereo not drawn) [Secnidazole]
Cholesterol-free media + simvastatin (0.04 μM) [1, 23]: 1.474
Complete Media [1, 24]: 1.409
Difference [1, 25]: −0.07
Cholesterol-free [2, 6]: 1.105
Complete [2, 7]: 1.528
Difference [2, 8]: 0.42

CC(C)(C)CC(=O)OCC(=O)[C@@]1(O)CC[C@H]2[C@@H]3CCC4=CC(=O)C=C[C@]4(C)[C@H]3[C@@H](O)C[C@@]21C [Prednisolone Tebutate]
Cholesterol-free media + simvastatin (0.04 μM) [1, 23]: 0.7311
Complete Media [1, 24]: 0.7398
Difference [1, 25]: 0.01
Cholesterol-free [2, 16]: 1.01
Complete ([2]; NCI-H292 cells, complete media): 0.6634
Difference [2, 22]: −0.35

O=C(c1ccc(F)c(F)c1Nc1ccc(I)cc1F)N1CC(O)([C@@H]2CCCCN2)C1 (racemic) [Cobimetinib (racemate)]
Cholesterol-free media + simvastatin (0.04 μM) [1, 3]: 0.2662
Complete Media [1, 4]: 0.405
Difference [1, 5]: 0.14
Difference [2, 21]: −0.02
Cholesterol-free [2, 6]: 0.2982
Complete [2, 7]: 0.2751

CCC(=O)O[C@]1(C(=O)CCl)[C@@H](C)C[C@H]2[C@@H]3C[C@H](F)C4=CC(=O)C=C[C@]4(C)[C@@]3(F)[C@@H](O)C[C@@]21C [Halobetasol (propionate)]
Cholesterol-free media + simvastatin (0.04 μM) [1, 23]: 0.5775
Complete Media [1, 24]: 0.585
Difference [1, 25]: 0.01
Difference [2, 12]: −0.18
Cholesterol-free [2, 13]: 0.7462
Complete [2, 4]: 0.5641

Toremifene (citrate)
Cholesterol-free media + simvastatin (0.04 μM) [1]: 0.4491
Difference [1]: 0.61
Complete [2]: 0.7656
Difference [2]: −0.28
